Measurements reported in paper PMC11937972 (JACS Au, 2025).
Where two headings read alike, the source gives them in different places.

Columns and labels:
[1] = molecular target: T1, URAT1^EM (humanized rat URAT1, rURAT1-3M) (Rattus norvegicus, UniProt Q3ZAV1, M481I/N35S/Y365F); experiment: cell-based
T1 sequence (Q3ZAV1 1-553 N35S/Y365F/M481I): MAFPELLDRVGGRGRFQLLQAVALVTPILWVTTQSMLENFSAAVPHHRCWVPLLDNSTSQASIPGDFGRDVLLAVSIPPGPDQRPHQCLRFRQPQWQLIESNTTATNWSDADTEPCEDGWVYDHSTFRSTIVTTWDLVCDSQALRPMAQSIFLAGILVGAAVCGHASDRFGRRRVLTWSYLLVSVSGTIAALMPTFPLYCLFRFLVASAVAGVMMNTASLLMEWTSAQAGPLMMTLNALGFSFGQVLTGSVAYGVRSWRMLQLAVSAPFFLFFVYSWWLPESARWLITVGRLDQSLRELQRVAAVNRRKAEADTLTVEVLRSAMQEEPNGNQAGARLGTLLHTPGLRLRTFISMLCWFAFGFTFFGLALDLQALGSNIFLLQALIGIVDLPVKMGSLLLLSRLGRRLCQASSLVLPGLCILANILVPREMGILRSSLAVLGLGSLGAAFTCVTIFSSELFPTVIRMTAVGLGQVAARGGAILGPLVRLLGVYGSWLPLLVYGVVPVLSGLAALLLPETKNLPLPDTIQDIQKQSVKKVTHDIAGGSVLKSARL

human URAT1 (hURAT1) = molecular target: T2, human URAT1 (hURAT1) (Homo sapiens, UniProt Q96S37); experiment: inhibition of urate uptake in transfected HEK293T cells; format: cell-based
T2 sequence (Q96S37 1-553): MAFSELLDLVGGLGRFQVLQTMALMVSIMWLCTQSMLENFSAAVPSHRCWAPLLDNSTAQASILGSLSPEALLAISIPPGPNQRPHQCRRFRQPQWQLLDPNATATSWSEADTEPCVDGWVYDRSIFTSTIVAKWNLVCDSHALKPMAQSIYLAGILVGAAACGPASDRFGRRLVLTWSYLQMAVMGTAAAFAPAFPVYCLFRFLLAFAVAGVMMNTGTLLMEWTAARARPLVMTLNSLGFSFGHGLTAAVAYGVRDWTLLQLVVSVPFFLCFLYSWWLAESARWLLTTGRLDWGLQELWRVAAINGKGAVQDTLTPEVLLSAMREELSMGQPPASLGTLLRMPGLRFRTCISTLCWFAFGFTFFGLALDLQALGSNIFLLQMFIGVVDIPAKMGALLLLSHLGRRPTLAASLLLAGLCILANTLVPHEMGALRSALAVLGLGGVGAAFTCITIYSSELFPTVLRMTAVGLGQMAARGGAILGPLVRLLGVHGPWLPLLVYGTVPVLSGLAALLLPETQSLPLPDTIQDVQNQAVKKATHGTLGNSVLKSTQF

[2] = molecular target: T1, URAT1^EM (humanized rat URAT1, rURAT1-3M); experiment: cryo-EM structure at […] Å; format: cell-based
[3] = substrate: O=c1[nH]c(=O)c2[nH]c(=O)[nH]c2[nH]1; experiment: concentration-dependent urate uptake in HEK293T cells, Km; format: cell-based, Rattus norvegicus
[4] = substrate: O=c1[nH]c(=O)c2[nH]c(=O)[nH]c2[nH]1; experiment: as above; format: cell-based, Homo sapiens

## CCc1oc2ccccc2c1C(=O)c1cc(Br)c(O)c(Br)c1 [BEN, benzbromarone]
[1]
  IC50: 425 nM

## CC(C)(Sc1ccncc1-c1ccc(C#N)c2ccccc12)C(=O)O [VER, verinurad]
Human URAT1 (hURAT1)
  IC50: Inhibition of human URAT1 WT and variants by verinurad.
[2]
  IC50: 150 nM

B1: URAT1^EM (humanized rat URAT1, rURAT1-3M) (Rattus norvegicus; M481I/N35S/Y365F) (protein)
chain: MAFPELLDRVGGRGRFQLLQAVALVTPILWVTTQSMLENFSAAVPHHRCWVPLLDNSTSQASIPGDFGRDVLLAVSIPPGPDQRPHQCLRFRQPQWQLIESNTTATNWSDADTEPCEDGWVYDHSTFRSTIVTTWDLVCDSQALRPMAQSIFLAGILVGAAVCGHASDRFGRRRVLTWSYLLVSVSGTIAALMPTFPLYCLFRFLVASAVAGVMMNTASLLMEWTSAQAGPLMMTLNALGFSFGQVLTGSVAYGVRSWRMLQLAVSAPFFLFFVYSWWLPESARWLITVGRLDQSLRELQRVAAVNRRKAEADTLTVEVLRSAMQEEPNGNQAGARLGTLLHTPGLRLRTFISMLCWFAFGFTFFGLALDLQALGSNIFLLQALIGIVDLPVKMGSLLLLSRLGRRLCQASSLVLPGLCILANILVPREMGILRSSLAVLGLGSLGAAFTCVTIFSSELFPTVIRMTAVGLGQVAARGGAILGPLVRLLGVYGSWLPLLVYGVVPVLSGLAALLLPETKNLPLPDTIQDIQKQSVKKVTHDIAGGSVLKSARL
[3]
  Km: 203 µM

B2: human URAT1 (hURAT1) (Homo sapiens) (protein)
chain: MAFSELLDLVGGLGRFQVLQTMALMVSIMWLCTQSMLENFSAAVPSHRCWAPLLDNSTAQASILGSLSPEALLAISIPPGPNQRPHQCRRFRQPQWQLLDPNATATSWSEADTEPCVDGWVYDRSIFTSTIVAKWNLVCDSHALKPMAQSIYLAGILVGAAACGPASDRFGRRLVLTWSYLQMAVMGTAAAFAPAFPVYCLFRFLLAFAVAGVMMNTGTLLMEWTAARARPLVMTLNSLGFSFGHGLTAAVAYGVRDWTLLQLVVSVPFFLCFLYSWWLAESARWLLTTGRLDWGLQELWRVAAINGKGAVQDTLTPEVLLSAMREELSMGQPPASLGTLLRMPGLRFRTCISTLCWFAFGFTFFGLALDLQALGSNIFLLQMFIGVVDIPAKMGALLLLSHLGRRPTLAASLLLAGLCILANTLVPHEMGALRSALAVLGLGGVGAAFTCITIYSSELFPTVLRMTAVGLGQMAARGGAILGPLVRLLGVHGPWLPLLVYGTVPVLSGLAALLLPETQSLPLPDTIQDVQNQAVKKATHGTLGNSVLKSTQF
[4]
  Km: 80 µM
